Experiments:
[1] = tested on: MDA-MB-468 tumor and PBMC co-cultures; assay: Tumor/PBMC co-culture assay; format: cell-based, human; conditions: tumor/immune cell co-cultures
Method: Tumor cells were transfected with Incucyte® Cytolight red lentivirus per manufacturer's instructions and stable polyclonal cell populations expressing mKate2 (red fluorescent protein, RFP) were generated under puromycin selection. Live-cell killing assays were performed by seeding RFP+ MDA-MB-468 tumor cells in 96-well flat bottom plates (Corning #3603) at a variety of densities (3,750-10,000 cells/well) and grown overnight. The following day, PBMCs isolated from healthy donors were added at 15:1 or 25:1 effector to target (E:T) ratios and cultures were treated with the indicated small molecule drugs or ADCs. To evaluate immune cell activation, supernatants were harvested between 120 and 144 hours post treatment and MIP-1β production was evaluated by Milliplex MAP Human cytokine/chemokine/growth factor panel A (12-plex) Immunology Multiple Assay (Millipore Sigma #HCYTA-60K-12C). […] Following the final wash, cell pellets were resuspended in 200 μL staining buffer and analyzed on an NXT Attune flow cytometer (ThermoFisher). Flow cytometry data were analyzed using FlowJo software and monocyte activation was quantified by measuring the MFI of CD86 staining on CD14+ monocytes within the RFP−/live/CD19−/CD3−/CD14+ gate.

[2] = tested on: MDA-MB-468 xenograft model; assay: MDA-MB-468 xenograft dose range, Study MDAMB468-9; format: in vivo, NSG mice; conditions: three weekly doses
Method: Tumor volume was measured twice weekly until study day 85.
Female NSG mice were implanted with 1×10^6MDA-MB-468 cells in 25% Matrigel H C (Corning #354248) subcutaneously. Once tumor volumes reached 100 mm^3, mice were randomized into treatment groups of 5 mice each and dosed with 0.3, 1, or 3 mg/kg every seven days for three total doses (q7dx3). Twenty-four hours prior to receiving each ADC dose, each animal was treated with 10 mg/kg hIVIG (Grifolds). Tumor volumes were measured twice per week, animals were euthanized when tumor volume reached 700-1000 mm^3. Stock concentrations of ADC were diluted to desired concentration (with 0.01% Tween20 in PBS) and injected i.p. into each treatment group.

SKBR3 = assay: ADCP with primary monocytes/macrophages; format: cell-based, human; conditions: 2 independent donors
Method: The B7-H4-expressing cell line SKBR3 and primary monocytes/macrophages were used to evaluate SGN-B7H4V-mediated ADCP. […] Phagocytosis of opsonized cells was assessed by flow cytometry.
SKBR3 tumor cells were fluorescently labeled with PKH26 (PKH26 Red Fluorescent Cell Membrane Labeling Kit, Sigma-Aldrich #PKH26GL-1KT), according to manufacturer instructions: SKBR3 cells were harvested with Versene (Gibco #15040-066) for 10 minutes and washed once with PBS. Cell were resuspended in 1 mL Diluent C (included in the PKH26 Red Fluorescent Cell Membrane Labeling Kit, Sigma-Aldrich #PKH26GL-1KT). In a separate tube, 1 mL Diluent C was mixed with 4 μL PKH26 dye by pipetting up and down. The dye solution was transferred to resuspended cells, quickly mixed by pipetting up and down several times, and incubated at room temperature for 5 minutes. Labeling reaction was stopped by adding 2 mL FBS (0.05-0.2 EU/ml Endotoxin, R&D Systems #S11550H). Cells were then washed once with RPMI 1640 (Gibco #11875-093) containing 10% FBS. Cells were resuspended in PBS at concentration of 0.8×10^6 cells/mL and transferred (300 μL/well) to a 96-well U-bottom plate (Falcon #353227). […] Phagocytosis is reported as the PKH26 geometric mean fluorescence intensity (gMFI) of gated CD14+/CD45+ cells analyzed using Flowjo. […]

Q: Which results are given for “SGN-B7H4V: ADC of fully human IgG1 anti-B7-H4 mAb conjugated to monomethyl auristatin E (MMAE) via a protease-cleavable valine-citrulline linker (vedotin)”?
A: CD86 on CD14+ monocytes [1]: upregulation of the costimulatory molecule CD86; release of MIP-1β/CCL4 [1]: led to the release of the chemoattractant MIP-1β/CCL4; anti-tumor activity (tumor volume) ([2]; 0.3 mg/kg): minimal anti-tumor activity; anti-tumor activity (tumor volume) ([2]; 1 mg/kg): transient regression of tumor volumes in all mice; anti-tumor activity (tumor volume) ([2]; 3 mg/kg): transient regression of tumor volumes in all mice; ADCP activity (SKBR3): ADCP activity above that seen with the positive control
